How the values were obtained:
KB cells [1] = assay: Synergism with vincristine on KB cell number; assay type: cell-based, human
Procedure: (§1) All cells were grown in Eagle's minimum essential medium supplemented with 10% fetal bovine serum with the exception of HL-60 and K562-4 cells which were grown in RPMI 1640 medium supplemented with 10% fetal bovine serum. The KB and MH1 C1 cells, from a human nasopharyngeal carcinoma and rat hepatoma, respectively, were from American Type Culture Collection. The ChaGo cells, a human lung carcinoma, was generously provided by Dr. A. H. Tashjian. The human promyeloblastic leukemia cells, K562-4 were kindly supplied by Dr. Bismarck Lozzio. HL-60 cells, a human promyelocytic leukemia, and P388 cells, a mouse leukemia, were obtained from Dr. Y.-C. Cheng. The 77 cells were put into culture by us by excising the 7777, Morris hepatoma from a rat graciously supplied by the late Dr. H. P. Morris.
(§2) Cells were transferred or removed from monolayers for counting after a one or two minute incubation with 0.02% sodium ethylenediamine tetraacetate in phosphate-buffered saline to dislodge the cells. Flasks were seeded at a density of 1×10^3 cells per cm^2 or 2×10^4 per milliliter for suspension cultures. The HL-60 and K562-4 suspension cultures were used about 24 hours after seeding. The compounds to be tested were diluted to various concentrations and added to the monolayer cultures. All of the test compounds were dissolved in 10% dimethyl sulfoxide (DMSO) at concentrations that would give a final DMSO concentration of 0.1%. Control flasks contained 0.1% DMSO. Control cell replication was followed until approximately three doublings had occurred, and then all of the treated cells were counted.
For example, 1 μM VIII reduced cell number to 45% of control and 0.004 μg per milliliter vincristine caused a reduction to 27% of control. Thus, the two agents together should have reduced cell number to 12% of control if they acted additively.

K562-4 cells = assay: Cytostatic activity on K562-4 cells; assay type: cell-based; conditions: Homo sapiens; K562-4 (printed X562-4)
Procedure: as §1, §2

HL-60 cells = assay: Cytostatic activity on HL-60 cells; assay type: cell-based; conditions: Homo sapiens
Procedure: as §1
as §2, with “The compounds to be tested were diluted to various concentrations and added to the monolayer cultures. All of the test compounds were dissolved in 10% dimethyl sulfoxide (DMSO) at concentrations that would give a final DMSO concentration of 0.1%. Control flasks contained 0.1% DMSO.” left out

KB cells [2] = assay: Cytostatic activity on KB cells; assay type: cell-based; conditions: Homo sapiens; KB cells, after controls doubled three times; read-out: IC50 KB
Procedure: as §1, §2
(§3) The KB cells represented cells with low alkyl cleavage activity (less than the detectable level of 0.1-0.2 units per milligram protein by our assay procedure) and the 77 cells represented cells similar to normal cells with relatively high alkyl cleavage activity (1.6 units per milligram of protein). Our value for the cleavage activity of cultured 77 cells agrees well with the value of 1.4 units per milligram of protein reported by Soodsma et al, Cancer Res. 30, 309 (1970), for freshly excised 7777 Morris hepatoma tissue. In further confirmation of our assay procedure, we obtained a value of 12.6±4.1 units per milligram of protein in excised rat liver compared to 7.3 units per milligram of protein in rat liver measured by Soodsma et al.

77 cells = assay: Cytostatic activity on 77 cells; assay type: cell-based, rat; conditions: for IC50: 77 cells, after controls doubled three times; for 77/KB: ratio of IC50 values ± standard error of the quotient
Procedure: as §1, §2, §3

[3] = tested on: P388 mouse leukemia cells; assay: In vivo anti-tumor activity, P388 mouse leukemia; design: species or system mouse (BDF1 female mice); conditions: for increased survival: days 1, 5, and 9
Description: P388 mouse leukemia cells were transplanted by intraperitoneal injection of 1×10^6 cells into BDF1 female mice on day 0. Treatments were begun on day 1. Control mice received the vehicle for the test compounds. […]

[4] = tested on: HIV-1 binding to target T-cells; conditions: in words; cited from earlier work
HIV-1 [5] = assay: HIV-1 plaque assay, inhibitor added 30 minutes before infection; assay type: cell-based, human immunodeficiency virus type 1 (HIV-1); conditions: for Inhibition (%): HIV-1 plaque formation, Table 5
Description: Dextran sulfate was used as a positive control. […] Plaques were counted at five days after infection.
(§4) By way of further background, in our assay HIV-1 syncytial plaques are seen as large, multicellular foci (10 to 25 nuclei/syncytium) that appear either brown and granular or clear. Since the number of HIV-1 syncytial plaques correlates with reverse transcriptase (RT) and p24 core antigen activity in the HIV-1 infected cell overlay fluids, the syncytial plaque assay can be used to quantify the amount of infectious virus. Reverse transcriptase activity was assayed according to a described procedure (B. J. Poeisz et al., Proc. Natl. Acad. Sci. (U.S.A.) […], 7415 (1980)). The activity of p24 core antigen induced by HIV-1 infection of CEM-SS cells was measured spectrophotometrically using the commercial Abbott EIA.
Compound E inhibited HIV-1 plaque count 43%, 83%, and 91% at concentrations of 0.2, 0.4, and 2.0 μM, respectively, compared to untreated controls. […] In other experiments addition of 0.2, 0.4 and 2.0 μM Compound E starting sixty minutes after HIV-1 infection inhibited HIV-1 plaque formation 28%, 59% and 97% respectively, compared to untreated controls.

P388 cells = assay: Cytostatic activity on P388 cells; assay type: cell-based; conditions: Mus musculus
Procedure: as §1
as §2, with “The compounds to be tested were diluted to various concentrations and added to the monolayer cultures. All of the test compounds were dissolved in 10% dimethyl sulfoxide (DMSO) at concentrations that would give a final DMSO concentration of 0.1%. Control flasks contained 0.1% DMSO.” left out

MH1 C1 cells = assay: Cytostatic activity on MH1 C1 cells; assay type: cell-based, rat
Procedure: as §1, §2

ChaGo cells = assay: Cytostatic activity on ChaGo cells; assay type: cell-based, human; conditions: Homo sapiens
Procedure: as §1, §2

extracellular HSV-2 = assay: Direct inactivation of extracellular HSV-2 infectivity; assay type: cell-based, herpes simplex virus type 2 (HSV-2); conditions: 2 μM, in words
extracellular HIV-1 = assay: Direct inactivation of extracellular HIV-1 infectivity; assay type: cell-based, human immunodeficiency virus type 1 (HIV-1)
Procedure: Since ether lipid (EL) analogs are membrane interactive, see, e.g. , A. Noseda et al., Biochim. Biophys. Acta 945, 92 (1988), we determined whether Compound E could directly inactivate extracellular HIV-1 infectivity. About 350 plaque forming units of HIV-1 were mixed with antiviral concentrations (2.0 μM) of E or with control medium alone in a total volume of 100 μl. After three hours of incubation at 37° C., the virus compound and virus medium mixtures were diluted 20-fold to reduce the concentration of Compound E below a significant antiviral concentration. Aliquots (100 μl) of the diluted HIV-1 were added to CEM-SS cell monolayers to measure residual virus infectivity by plaque count. A mean of 22 plaques (N=2) were counted for Compound E-treated HIV-1 and a mean of 27 plaques (N=2) for medium-treated HIV-1.

reverse transcriptase = assay: Reverse transcriptase activity in HIV-1 infected CEM-SS cells; assay type: cell-based, human immunodeficiency virus type 1 (HIV-1); conditions: in words
Procedure: as §4
(§5) In brief, CEM-SS cells were infected with HIV-1. At various times after infection (3, 6, 8, 10, 13 days) the overlay fluids were replaced with fresh medium. Overlay fluids replaced on days 8, 10 and 13 were saved at -80° C. to measure HIV-1 plaque forming units according to our described protocol above and RT activity (described by Poiesz et al., Proc. Natl. Acad. Sci. U.S.A. 77, 7415 (1980). Results are given in Table 8 below.

[6] = tested on: herpes simplex virus type 2 (HSV-2); assay: HSV-2 plaque formation in Vero cell monolayers; assay type: cell-based; conditions: 2 μM, in words
HIV-1 [7] = assay: Infectious HIV-1 multiplication (plaque forming units); assay type: cell-based, human immunodeficiency virus type 1 (HIV-1); conditions: in words
Procedure: as §5

Compound: CC[C@]1(O)C[C@H]2CN(CCc3c([nH]c4ccccc34)[C@@](C(=O)OC)(c3cc4c(cc3OC)N(C=O)[C@H]3[C@@](O)(C(=O)OC)[C@H](OC(C)=O)[C@]5(CC)C=CCN6CC[C@]43[C@@H]65)C2)C1 [vincristine, reference compound]
- cell number, % of control (KB cells [1]; 0.004 μg per milliliter vincristine): 27%

Compound: CCCCCCCCCCCCCCCCOCC[N+](C)(C)CCCO.[I-] [VI, 2-hexadecyloxy-N,N-dimethyl-N-gamma-hydroxypropyl-1-ethyl ammonium iodide]
- IC50 (K562-4 cells): 2200 ± 410 nM
- IC50 (HL-60 cells): 450 ± 11 nM
- IC50 (KB cells [2]): 230 ± 70 nM
- IC50 (77 cells): 2050 ± 910 nM
- 77/KB (77 cells): 8.9 ± 4.79
- increased survival ([3]; 50 mg/kg): 26%
- reduced survival ([3]; 75 mg/kg on days 1 and 2): 48%
- increased survival ([3]; 75 mg/kg): 48%
- in vivo activity against P388 ([3]; in words): appeared to have in vivo activity against P388
- survival time ([3]; one 50 mg/kg dose on day 1): did not affect survival time
- lethality ([3]; single 100 mg/kg dose on day 1): killed all the mice by day 2

Compound: Dextran Sulfate [reference compound]
- inhibition of HIV-1 binding to target T-cells [4]: a known inhibitor of HIV-1 binding to target T-cells
- Inhibition (%) (HIV-1 [5]; 1 μM): 91%
- Inhibition (%) (HIV-1 [5]; 1 μM, listed as dextran sulfate): 92%
- Inhibition (%) (HIV-1 [5]; 2 μM): 100%
- Inhibition (%) (HIV-1 [5]; 10 μM): 100%

Compound: CCCCCCCCCCCCCCCCCCOCC[N+](C)(C)CCO.[I-] [VIII, 2-octadecyloxy-N,N-dimethyl-N-β-hydroxyethyl-1-ethyl ammonium iodide]
- IC50 (K562-4 cells): 1900 nM
- activity at 1 µM (KB cells [1]; Homo sapiens, 1 μM VIII, read-out: cell number, % of control): 45%
- synergism with vincristine (KB cells [1]; in words): acted synergistically with vincristine against KB cells
- IC50 (P388 cells): 420 nM
- IC50 (MH1 C1 cells; MH1 C1): 7700 nM
- sensitivity of MH1 C1 cells relative to 77 cells (MH1 C1 cells; MH1 C1 vs 77 cells): two to three times less sensitive to growth inhibition than 77 cells
- IC50 (MH1 C1 cells; Rattus norvegicus, MH1C1, MH1 C1): 6400 nM
- IC50 (KB cells [2]): 300 ± 140 nM
- IC50 (ChaGo cells): 1000 nM
- IC50 (77 cells): 1800 ± 810 nM
- 77/KB (77 cells): 5.8 ± 3.8

Compound: CCCCCCCCCCCCCCCCSCC(C[N+](C)(C)CCO)OC.[I-] (racemic) [Compound 12, (±)-3-hexadecylthio-2-methoxy-N,N-dimethyl-N-β-hydroxyethyl-1-propyl ammonium iodide]
- inactivation of extracellular HSV-2 infectivity (extracellular HSV-2): nor directly inactivates extracellular HSV-2 infectivity
- inactivation of extracellular HIV-1 infectivity (extracellular HIV-1; 2.0 μM, in words): does not inactivate extracellular HIV-1 infectivity
- mean residual plaques (extracellular HIV-1; HIV-1 treated 2.0 μM, 3 hours, 37° C., diluted 20-fold, N=2 (medium: 27 plaques)): 22 plaques
- reverse transcriptase activity (reverse transcriptase; 13 days): reverse transcriptase activity increases
- reverse transcriptase activity (reverse transcriptase; between 8 and 10 days): markedly inhibit infectious virus production and reverse transcriptase activity in a dose-dependent manner
- selectivity against HIV-1 plaque formation (HIV-1 [5]; vs HSV-2, in words): selective inhibitory activity against HIV-1 plaque formation
- inhibition of HSV-2 plaque formation [6]: neither inhibits herpes simplex virus type 2 (HSV-2) plaque formation in Vero cell monolayers
- infectious virus production (HIV-1 [7]; 13 days): infectious virus production is still inhibited
- infectious virus production (HIV-1 [7]; between 8 and 10 days): markedly inhibit infectious virus production
